Experimental data as given in patent US9469878B2, “Methods of treating cancer comprising targeting NQO1” (The Board of Regents of the University of Texas System, priority 2010, dated 2016).

Tests used:
[1] = test system: PARP1 in A549 NSCLC cells; test: PAR formation, Western blot; format: cell-based, human; conditions: 25 mM, β-lap-treated A549 NSCLC cells
Protocol: Whole-cell extracts were prepared, proteins separated by SDSPAGE, and Western blots developed using SuperSignal® West Pico Chemiluminescent substrate (Thermo Scientific, Rockford, Ill.), and exposed using Autoradiography Film (Denville Scientific Inc., Metuchen, N.J.). An anti-human NQO1 antibody was kindly provided to us by Dr. David Ross (University of Colorado Health Science Center, Denver, Colo.) and used at a 1:5000 dilution overnight at 4° C.

PARP1 in MCF-7 cells = test: Western-blot analyses for PARP1 cleavage; format: cell-based, human; conditions: pre-treatment, 4 μM β-lap 2 h pulse
Protocol: For Western-blot analyses for PARP1 cleavage-MCF-7 cells seeded in 10 cm dishes were treated with 4 μM β-lap in the absence or presence of 1000 U of catalase dissolved in hepes buffer pH 7.4 for 2 h. Cells were then given fresh media and incubated at 37° C. for 24 h. Cells were then harvested in PARP1 lysis buffer. Lysates were resolved in 10% SDS-PAGE and immunoblotted onto PVDF membranes and probed with a monoclonal PARP1 antibody (SC-8007). […] Relative PAR levels were calculated by densitometric analyses by NIH ImageJ using PARP1 loading controls. Measurements were normalized to t=0 levels. Western blots shown are representative of separate experiments performed at least three times.

PC-3 cells = test: Intracellular NAD+ and ATP levels; format: cell-based, human; conditions: pre- and co-treatment, 2 or 3 Gy+3 μM β-lap
Protocol: ATP levels were analyzed from whole-cell extracts using CellTiter-Glo Luminescent Cell Viability Assays (Promega, Madison, Wis.) following the manufacture's instructions. Data were graphed as means±SE from at least three independent experiments in triplicates.

NQO1 [2] = molecular target: T1, NQO1 (Homo sapiens, UniProt P15559, P187S); test: NQO1 enzyme assays using β-lapachone or the standard menadione substrates; format: biochemical; conditions: single value given
T1 construct: S9 Supernatants were prepared from cells in mid-log to late log phase growth; endogenous in cells; host or cells: cancer cell lines, mostly from a non-small cell lung cancer panel; S9 supernatants
T1 sequence (P15559 whole entry P187S): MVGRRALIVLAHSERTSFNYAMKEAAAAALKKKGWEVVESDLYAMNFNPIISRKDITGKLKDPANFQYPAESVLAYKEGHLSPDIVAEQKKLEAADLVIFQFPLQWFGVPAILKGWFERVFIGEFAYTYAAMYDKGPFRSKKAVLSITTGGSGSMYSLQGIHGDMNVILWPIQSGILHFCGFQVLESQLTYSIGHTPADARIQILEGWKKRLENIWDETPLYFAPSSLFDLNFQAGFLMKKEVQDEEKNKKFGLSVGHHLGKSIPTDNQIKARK
Protocol: (§1) S9 Supernatants were prepared from cells in mid-log to late log phase growth. […] The cell suspensions were sonicated on ice four times, using 10-s pulses, and then centrifuged at 14,000×g for 20 min. The S9 supernatants were aliquoted into microcentrifuge tubes and stored at −80° C. until used. A 1× protease inhibitor cocktail was added to prevent enzyme activity degradation. […] Menadione was used as the electron acceptor. NADH was used as the electron donor.
(§2) NQO1 activity was measured using NADH (200 μM) as the immediate electron donor and menadione (10 μM) as the intermediate electron acceptor. […] Biochem. Biophys. […] NADH: cytochrome b5 reductase was measured using NADH (200 μM) as the electron donor, and […] was measured using NADPH (200 μM) as electron donor (45) in a Beckman DU 640 spectrophotometer (Beckman Coulter, Fullerton, Calif.). Reactions were carried out at 37° C. and were initiated by the addition of S9 supernatants. Varying amounts of supernatants, from 10 to 40 μL, were used to ensure linearity of rates with protein concentration. […] Results shown are the average enzyme activity for three separate cell extractions±S.D. or both values from duplicate experiments.
(§3) Cell lines, mostly from a 5-panel nonsmall cell lung cancer panel from the UT Southwestern SPORE, were assessed for NQO1 polymorphism status and then monitored for NQO1 enzyme assays using β-lapachone or the standard menadione substrates. […] NQO1*2/*2 and *3/*3 polymorphisms were detected from NQO1 *1/*1 wild-type sequences by PCR-RFLP. Genomic DNA was extracted from the cells using Qiagen spin columns. Using previously described oligonucleotide primers, PCR products underwent gel electrophoresis. Final genotyping was determined based on the size and pattern of separated bands diagnostic for *1/*1 (wild-type), or polymorphic *2/*2 or *3/*3 NQO1 polymorphisms.

NQO1 [3] = molecular target: T2, NQO1 (Homo sapiens, UniProt P15559, R139W); test: as above; format: biochemical; conditions: menadione as substrate
T2 construct: S9 Supernatants were prepared from cells in mid-log to late log phase growth; endogenous in cells; host or cells: cancer cell lines, mostly from a non-small cell lung cancer panel (e.g. Calu-3); S9 supernatants
T2 sequence (P15559 whole entry R139W): as the sequence (P15559 whole entry P187S) above, with R139W, S187P counted along it
Protocol: as §1, §2, §3

NQO1 [4] = test: as above; format: biochemical, human; conditions: menadione as substrate
Protocol: as §1, §2, §3

NQO1 [5] = molecular target: NQO1 (Homo sapiens, UniProt P15559); test: as above; format: biochemical; parameters: S9 Supernatants were prepared from cells in mid-log to late log phase growth; endogenous in cells; host or cells: cancer cell lines, mostly from a non-small cell lung cancer panel; S9 supernatants; conditions: menadione as substrate
Sequence of NQO1 (Homo sapiens, UniProt P15559) (P15559 whole entry): as the sequence (P15559 whole entry P187S) above, with S187P counted along it
Protocol: as §1, §2, §3

[6] = test system: MDA-MB-231 cells expressing NQO1 (231+); test: Long term survival assay; format: cell-based, human; conditions: 231-NQ+ cells
Protocol: Cells were cultured and treated as described above.
Data were expressed as relative survival (treated/control×100%).

[7] = test system: Human (shown) or mouse rbs; test: Hemolysis of red blood cells; format: cell-based; conditions: rbs incubated with HPβCD alone, HPβCD-β-lap, or β-lap alone in DMSO
Protocol: Human (shown) or mouse rbs were incubated with HPβCD alone or HPβCD-β-lap, or β-lap alone in DMSO.

NC(=O)c1cccc(N)c1 [3-aminobenzamide]
Effect on PAR formation [1]: spares and delays PAR formation

CC(=O)OCOC(=O)CN(CC(=O)OCOC(C)=O)c1ccccc1OCCOc1ccccc1N(CC(=O)OCOC(C)=O)CC(=O)OCOC(C)=O [BAPTA-AM]
Effect on β-lap-mediated proteolysis of PARP1 and lethality (PARP1 in MCF-7 cells): prevented

O=C1NCCc2c(OCCCCN3CCCCC3)cccc21 [DPQ, 3,4-dihydro-5[4-(1-piperindinyl)butoxy]-1(2H)-isoquinoline]
Effect on synergistic losses of ATP (PC-3 cells): prevented

CC1=CC(=O)c2ccccc2C1=O [Men, menadione]
NQO1 activity, Men (NQO1 [2]; H596/NSCLC *2/*2): <1 ± 0.01 nmol/min/µg | NQO1 activity, Men (NQO1 [2]; H2882/NSCLC *2/*2): <1 ± 0.01 nmol/min/µg | NQO1 activity, Men (NQO1 [2]; HCC366/NSCLC *2/*2): <1 ± 0.01 nmol/min/µg | NQO1 activity, Men (NQO1 [2]; MDA-MB-231/Breast *2/*2): 1 ± 0.05 nmol/min/µg | NQO1 activity, Men (NQO1 [2]; MDA-MB-468/Breast *2/*2): <1 ± 0.01 nmol/min/µg | NQO1 activity, Men (NQO1 [3]; Calu-3/NSCLC *3/*3): 48 ± 3 nmol/min/µg | NQO1 activity, Men (NQO1 [3]; H2009/NSCLC *3/*3): 4.0 ± 1 nmol/min/µg | NQO1 activity, Men (NQO1 [3]; HCC1171/NSCLC *3/*3): 98 ± 17 nmol/min/µg | NQO1 activity, Men (NQO1 [3]; T47D/BreastCancer *3/*3): 32 ± 2 nmol/min/µg | NQO1 activity, Men (NQO1 [4]; H292 *1/*2): 169 +/− 17; ND nMoles/min/μg | NQO1 activity, Men (NQO1 [4]; HCC44 *1/*2): 148 ± 14 nmol/min/µg | NQO1 activity, Men (NQO1 [5]; H322 *1/*1): 1234 +/− 40; ND nMoles/min/μg | NQO1 activity, Men (NQO1 [5]; H1648 *1/*1): 1370 +/− 17; ND nMoles/min/μg | NQO1 activity, Men (NQO1 [5]; H1993 *1/*1): 1170 ± 30 nmol/min/µg | NQO1 activity, Men (NQO1 [5]; H2073 *1/*1): 1340 +/− 20; ND nMoles/min/μg

CC(=O)N[C@@H](CS)C(=O)O [NAC, N-acetyl-L-cysteine]
Effect on lethal effects of β-lap ([6]; pre- and co-treatments): protected against the lethal effects of 2 μM β-lap, but not 3 μM

Catalase
Catalase amount that significantly protected cells from the lethal effects of β-lap ([6]; exogenous catalase): ≥ 500 units

Z-VAD
Effect on β-lap-mediated proteolysis of PARP1 and lethality (PARP1 in MCF-7 cells): ineffective

hydroxypropyl-β-cyclodextrin [HPβCD]
Hemolysis [7]: caused significant hemolyses
